Test results reported in patent publication US9403832B2, “Pyrazolo[1,5-a]pyrimidine-based compounds, compositions comprising them, and methods of their use” (Lexicon Pharmaceuticals, Inc., priority 2012, dated 2016).

How the values were obtained:
AAK1 [1] = target: T1, AAK1 (Homo sapiens, UniProt Q2M2I8); test: P81 filter plate assay; type: biochemical; conditions: full-length human AAK1, Mu2 substrate, 33P-ATP
T1 construct: NP_055726.2
How it was run: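 Full-length human AAK1 (0.2 nM, 2×) was pre-incubated 10 min at RT with compounds (top concentration 96 μM in the dilution plate), then reacted 1 h at RT with full-length human Mu2 (0.2 μM, 2×), cold ATP (2 μM, 2×) and ³³P-ATP. Reactions were stopped with phosphoric acid and captured on P81 filters for scintillation counting.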

AAK1 [2] = target: T1, AAK1; test: HEK281 cell-based assay (CBA); conditions: HEK293F cells transfected with full length human AAK1 and AP2M1; phospho-mu2 Western blot; 3 hours incubation
Protocol: HEK293F cells were cultured in media containing DMEM (Gibco, cat. #11965), 10% FBS (SAFC Biosciences, cat. #12103C), 1× GPS (glutamine, penicillin and streptomycin). On day one, cells were plated on a 10 cm dish so that they are ˜80% confluent at time of transfection. Roughly 12 million cells were in a 10 cm dish at time of transfection. On day two, each dish was transfected with 48 ug DNA and 144 ul Lipofectamine 2000 (Invitrogen, cat. #11668-019). The DNA was comprised of a mixture (per 10 cm dish) containing 3 ug AAK1/HA/pIRES (full length human, NCBI accession no. NP_055726.2), 45 μg Flag/AP2MI/pcDNA (full length human), and 1.5 ml OPTI-MEM. The Lipofectamine 2000 is made up of a mixture (per 10 cm dish) containing 144 μl Lipofectamine 2000 and 1.5 ml OPTI-MEM. Each mixture was transferred to individual 15 ml tubes and incubated at RT for 5 minutes, and then the two mixes were combined and incubated at RT for 20 minutes.
Growth media was then aspirated from each 10 cm plate and replaced with 10 ml of DMEM+10% FBS (no GPS). Finally, 3 ml DNA/Lipofectamine mix was added to each 10 cm dish and mix gently followed by incubate of plate overnight at 37° C. and 5% CO2.
On day three, compounds were diluted in 100% DMSO at 1000× final concentration, followed by 3-fold serial dilutions for a total of 5 concentrations tested. Four compounds were tested per 10 cm dish. One ul of each compound dilution was then pipetted into a deep-well, 96-well plate, followed by addition of 500 μl DMEM+0.5% FBS into each well for a 2× final concentration of each compound. Cells were resuspended in a 10 cm dish by simple pipetting (HEK293 cells come off the plate that easy at this point) and then transferred to a 50 ml conical tube and pelleted by centrifugation at 1000 rpm for 5 min. Cell pellets were then resuspended in 2.75 ml DMEM+0.5% FBS per 10 cm dish and 100 μl of cell suspension transferred into each well of 96-well TC plate. Finally, 100 μl of 2× compound diluted in DMEM+0.5% FBS was then added into wells containing cell suspension for a 1× final concentration. Plates were then incubated at 37° C. and 5% CO2 for 3 hours followed by transferring of cell suspensions from each well into 12-tube PCR strips. The PCR strips were spun in a tip rack at 1000 rpm for 5 minutes to pellet cells and media was then removed by pipetting without disturbing the cell pellet.
To prepare for Western Blot analysis, cell pellets were resuspend in 40 ul 1× LDS-PAGE sample buffer (Invitrogen, cat.# NP0008)+2× Halt phophatase and protease inhibitor cocktail (Thermo Scientific, cat. #1861284), followed by sonicating each with microtip sonicator set at 5 for 8-10 seconds. Five ul of 10× NuPage Sample Reducing Agent (with 50 mM DTT) was to each sample followed by heat denaturing at 70 C for 10 min on PCR machine. A total of 10 μl per sample was loaded into each lane of a 4-20% Tris-Glycine Criterion 26-well gel (Biorad, cat. #345-0034) for the phospho-mu2 blot and 10 μl per lane in a 4-12% Bis-Tris (+MES buffer) NuPAGE 26-well gel (Invitrogen, cat.# WG1403BX10) for the mu2 blot. For controls, 2 ng of phospho-mu2 or 20 ng mu2/Flag proteins were loaded in the last well of each gel. After SDS-PAGE, samples on each gel were transferred to PVDF membrane using an iBlot and membranes were blocked for one hour in TBST+5% milk, followed by wash 3× for 5-10 min with TBST. Criterion gels were probed with rabbit anti-phospho-mu2 (1:5000; a rabbit polyclonal antibody produced by New England Peptide and affinity purified at Lexicon) in TBST+5% BSA, whereas, NuPAGE gels were probed with mouse anti-Flag (1:500; Sigma, cat.# F1804) in TBST+5% milk, and these primary antibodies were incubated overnight at 4° C. on a rocker.

T1 sequence (Q2M2I8 1-863 isoform Q2M2I8-2): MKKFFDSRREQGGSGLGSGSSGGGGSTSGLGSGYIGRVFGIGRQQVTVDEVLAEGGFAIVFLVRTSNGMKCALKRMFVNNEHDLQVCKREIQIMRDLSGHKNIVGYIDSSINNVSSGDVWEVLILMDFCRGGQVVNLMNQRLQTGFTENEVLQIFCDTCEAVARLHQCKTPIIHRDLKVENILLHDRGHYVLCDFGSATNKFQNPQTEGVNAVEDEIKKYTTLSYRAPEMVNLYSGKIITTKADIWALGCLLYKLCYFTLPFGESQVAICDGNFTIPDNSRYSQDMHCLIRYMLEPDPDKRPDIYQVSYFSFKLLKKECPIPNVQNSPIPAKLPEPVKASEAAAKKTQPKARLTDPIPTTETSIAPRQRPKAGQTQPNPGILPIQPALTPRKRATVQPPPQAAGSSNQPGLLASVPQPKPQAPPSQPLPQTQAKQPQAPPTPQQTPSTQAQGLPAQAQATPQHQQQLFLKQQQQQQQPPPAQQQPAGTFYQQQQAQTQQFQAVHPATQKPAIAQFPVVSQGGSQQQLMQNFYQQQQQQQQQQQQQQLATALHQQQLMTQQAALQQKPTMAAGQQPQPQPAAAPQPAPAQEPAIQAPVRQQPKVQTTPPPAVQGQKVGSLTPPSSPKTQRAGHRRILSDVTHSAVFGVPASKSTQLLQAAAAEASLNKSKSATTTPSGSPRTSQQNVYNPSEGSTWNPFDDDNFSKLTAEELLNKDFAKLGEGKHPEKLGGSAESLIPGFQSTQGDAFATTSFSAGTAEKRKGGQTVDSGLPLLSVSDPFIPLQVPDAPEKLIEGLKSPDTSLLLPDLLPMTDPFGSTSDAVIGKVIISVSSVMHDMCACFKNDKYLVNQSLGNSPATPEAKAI

Row | SMILES | IC50 (AAK1 [1]) | IC50 (AAK1 [2])
1 | COc1ccccc1-c1cnn2ccc(N3CCN(C(=O)[C@@H](N)C(C)C)CC3)nc12 [(S)-2-amino-1-(4-(3-(2-methoxyphenyl)pyrazolo[1,5-a]pyrimidin-5-yl)piperazin-1-yl)-3-methylbutan-1-one] | ≤ 0.01 µM | ≤ 0.01 µM
2 | COc1ncccc1-c1cnn2ccc(N3CCN(C(=O)[C@@H](N)C(C)(C)C)CC3)nc12 [(S)-2-amino-1-(4-(3-(2-methoxypyridin-3-yl)pyrazolo[1,5-a]pyrimidin-5-yl)piperazin-1-yl)-3,3-dimethylbutan-1-one] | ≤ 0.01 µM | ≤ 0.01 µM
3 | COc1ncccc1-c1cnn2ccc(N3CCN(C(=O)[C@@H](N)C(C)C)CC3)nc12 [(S)-2-amino-1-(4-(3-(2-methoxypyridin-3-yl)pyrazolo[1,5-a]pyrimidin-5-yl)piperazin-1-yl)-3-methylbutan-1-one] | ≤ 0.01 µM | ≤ 0.01 µM
4 | COc1ncccc1-c1cnn2ccc(N3CCN(C(=O)[C@@H](N)CC(C)C)CC3)nc12 [(S)-2-amino-1-(4-(3-(2-methoxypyridin-3-yl)pyrazolo[1,5-a]pyrimidin-5-yl)piperazin-1-yl)-4-methylpentan-1-one] | ≤ 0.01 µM | ≤ 0.01 µM
5 | CC(C)[C@H](N)C(=O)N1CCN(c2ccn3ncc(-c4ccc(F)cc4)c3n2)CC1 [(S)-2-amino-1-(4-(3-(4-fluorophenyl)pyrazolo[1,5-a]pyrimidin-5-yl)piperazin-1-yl)-3-methylbutan-1-one] | ≤ 0.01 µM | ≤ 0.01 µM
6 | COc1ccc(F)cc1-c1cnn2ccc(N3CCN(C(=O)[C@@H](N)C(C)(C)C)CC3)nc12 [(S)-2-amino-1-(4-(3-(5-fluoro-2-methoxyphenyl)pyrazolo[1,5-a]pyrimidin-5-yl)piperazin-1-yl)-3,3-dimethylbutan-1-one] | ≤ 0.01 µM | ≤ 0.01 µM
7 | COc1ccc(F)cc1-c1cnn2ccc(N3CCN(C(=O)[C@@H](N)C(C)C)CC3)nc12 [(S)-2-amino-1-(4-(3-(5-fluoro-2-methoxyphenyl)pyrazolo[1,5-a]pyrimidin-5-yl)piperazin-1-yl)-3-methylbutan-1-one] | ≤ 0.01 µM | ≤ 0.01 µM
8 | CC(C)(C)[C@H](N)C(=O)N1CCN(c2ccn3ncc(-c4ccccc4)c3n2)CC1 [(S)-2-amino-3,3-dimethyl-1-(4-(3-phenylpyrazolo[1,5-a]pyrimidin-5-yl)piperazin-1-yl)butan-1-one] | ≤ 0.01 µM | ≤ 0.1 µM
9 | COc1ncccc1-c1cnn2ccc(N(C)C[C@@H]3CCCN3C(=O)OC(C)C)nc12 [(S)-isopropyl 2-(((3-(2-methoxypyridin-3-yl)pyrazolo[1,5-a]pyrimidin-5-yl)(methyl)amino)methyl)pyrrolidine-1-carboxylate] | ≤ 0.01 µM | ≤ 0.01 µM
10 | COc1ncccc1-c1cnn2ccc(NC[C@@H]3CCCN3C(=O)OC(C)C)nc12 [(S)-isopropyl 2-(((3-(2-methoxypyridin-3-yl)pyrazolo[1,5-a]pyrimidin-5-yl)amino)methyl)pyrrolidine-1-carboxylate] | ≤ 0.01 µM | ≤ 0.01 µM
11 | COc1ncccc1-c1cnn2ccc(N3CC[C@H](N(C)C(=O)OC(C)C)C3)nc12 [(S)-isopropyl (1-(3-(2-methoxypyridin-3-yl)pyrazolo[1,5-a]pyrimidin-5-yl)pyrrolidin-3-yl)(methyl)carbamate] | ≤ 0.01 µM | ≤ 0.1 µM
12 | COc1cccc(-c2cnn3ccc(NC[C@@H]4CCCN4C(=O)OC(C)(C)C)nc23)c1 [(S)-tert-butyl 2-(((3-(3-methoxyphenyl)pyrazolo[1,5-a]pyrimidin-5-yl)amino)methyl)pyrrolidine-1-carboxylate] | ≤ 0.01 µM | ≤ 0.01 µM

Other lines, results leading:

Row | IC50 (AAK1 [1]) | IC50 (AAK1 [2]) | SMILES
13 | ≤ 0.01 µM | ≤ 0.01 µM | COc1ccccc1-c1cnn2ccc(N3CCN(C(=O)[C@@H](N)C(C)(C)C)CC3)nc12 [(S)-2-amino-1-(4-(3-(2-methoxyphenyl)pyrazolo[1,5-a]pyrimidin-5-yl)piperazin-1-yl)-3,3-dimethylbutan-1-one]
14 | ≤ 0.01 µM | ≤ 0.01 µM | CC(C)[C@H](N)C(=O)N1CCN(c2ccn3ncc(-c4cccc(F)c4)c3n2)CC1 [(S)-2-amino-1-(4-(3-(3-fluorophenyl)pyrazolo[1,5-a]pyrimidin-5-yl)piperazin-1-yl)-3-methylbutan-1-one]
15 | ≤ 0.01 µM | ≤ 0.01 µM | COc1ccc(F)cc1-c1cnn2ccc(N3CCN(C(=O)[C@@H](N)CC(C)C)CC3)nc12 [(S)-2-amino-1-(4-(3-(5-fluoro-2-methoxyphenyl)pyrazolo[1,5-a]pyrimidin-5-yl)piperazin-1-yl)-4-methylpentan-1-one]
16 | ≤ 0.01 µM | ≤ 0.01 µM | COC[C@H](N)C(=O)N1CCN(c2ccn3ncc(-c4cccnc4OC)c3n2)CC1 [(S)-2-amino-3-methoxy-1-(4-(3-(2-methoxypyridin-3-yl)pyrazolo[1,5-a]pyrimidin-5-yl)piperazin-1-yl)propan-1-one]
17 | ≤ 0.01 µM | ≤ 0.01 µM | CC(C)[C@H](N)C(=O)N1CCN(c2ccn3ncc(-c4ccccc4)c3n2)CC1 [(S)-2-amino-3-methyl-1-(4-(3-phenylpyrazolo[1,5-a]pyrimidin-5-yl)piperazin-1-yl)butan-1-one]
18 | ≤ 0.01 µM | ≤ 0.01 µM | CC(C)C[C@H](N)C(=O)N1CCN(c2ccn3ncc(-c4ccccc4)c3n2)CC1 [(S)-2-amino-4-methyl-1-(4-(3-phenylpyrazolo[1,5-a]pyrimidin-5-yl)piperazin-1-yl)pentan-1-one]
19 | ≤ 0.01 µM | ≤ 0.01 µM | COc1ncccc1-c1cnn2ccc(N3CC[C@H](N(C)C(=O)[C@@H](N)CC(C)C)C3)nc12 [(S)-2-amino-N-((S)-1-(3-(2-methoxypyridin-3-yl)pyrazolo[1,5-a]pyrimidin-5-yl)pyrrolidin-3-yl)-N,4-dimethylpentanamide]
20 | ≤ 0.01 µM | ≤ 0.1 µM | COc1ncccc1-c1cnn2ccc(N3CCN(C(=O)[C@@H]4CCCN4)CC3)nc12 [(S)-(4-(3-(2-methoxypyridin-3-yl)pyrazolo[1,5-a]pyrimidin-5-yl)piperazin-1-yl)(pyrrolidin-2-yl)methanone]
21 | ≤ 0.01 µM | ≤ 0.01 µM | CCOC(=O)N1CCC[C@H]1CNc1ccn2ncc(-c3ccccc3OC)c2n1 [(S)-ethyl 2-(((3-(2-methoxyphenyl)pyrazolo[1,5-a]pyrimidin-5-yl)amino)methyl)pyrrolidine-1-carboxylate]
22 | ≤ 0.01 µM | ≤ 0.1 µM | COc1nc(C)ccc1-c1cnn2ccc(N3CC[C@H](N(C)C(=O)OC(C)C)C3)nc12 [(S)-isopropyl (1-(3-(2-d3-methoxy-6-methylpyridin-3-yl)pyrazolo[1,5-a]pyrimidin-5-yl)pyrrolidin-3-yl)(methyl)carbamate]
23 | ≤ 0.01 µM | ≤ 0.1 µM | COc1ccc(F)cc1-c1cnn2ccc(N3CC[C@H](N(C)C(=O)OC(C)C)C3)nc12 [(S)-isopropyl (1-(3-(5-fluoro-2-methoxyphenyl)pyrazolo[1,5-a]pyrimidin-5-yl)pyrrolidin-3-yl)(methyl)carbamate]
